Patent publication US12024510B2, “Pyrazolopyridine-diamides, their use as insecticide and processes for preparing the same” (PI INDUSTRIES LTD., priority 2017, dated 2024)

Key:
Assay type in all cases: in vivo
Helicoverpa armigera = Helicoverpa armigera diet incorporation method; details: third instar larvae, dead and moribund combined, 96 h after release
Method in brief: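 Third-instar larvae, starved, were placed singly on diet pieces containing test dispersion (bead-milled in surfactant, particles under 2 μm, 500 ppm stock then diluted). Trays kept at 25° C. and 70% RH; mortality counted at 96 h, moribund larvae counted with dead.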

Plutella xylostella = experiment: whole plant or invertebrate; details: foliar, cabbage leaf dip, second instar larvae, dead and moribund combined, 72 h after release
Method in brief: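 Leaf-dip bioassay: second-instar larvae, singly, fed on cabbage leaves dipped 10 s in test dispersion (bead-milled, diluted with 0.01% Triton-X to test concentration) and dried 20 min. Held at 25 °C, 70% RH; % mortality counts dead and moribund at 72 h.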

Spodoptera litura = Spodoptera litura diet incorporation method; details: third instar larvae, dead and moribund combined, 96 h after release
Method in brief: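 Compound milled to <2 μm average particle size in surfactant, dispersed in water (500 ppm stock dispersion), then mixed into semi-synthetic diet at ~50° C. One starved third-instar larva per diet cell, 25° C, 70% RH; percent mortality (dead plus moribund) scored at 96 h.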

Measured: mortality at 300 ppm

COc1cc(C(=O)Nc2c(C)cc3ccnn3c2C(=O)NC(C)(C)CO)n(-c2ncccc2Cl)n1 [Compound 197, 6-(1-(3-chloropyridin-2-yl)-3-methoxy-1H-pyrazole-5-carboxamido)-N-(1-hydroxy-2-methylpropan-2-yl)-5-methylpyrazolo[1,5-a]pyridine-7-carboxamide]
> 70%: all assays above

COc1cc(C(=O)Nc2c(C)cc3ccnn3c2C(=O)NC2CSC2)n(-c2ncccc2Cl)n1 [Compound 215, 6-(1-(3-chloropyridin-2-yl)-3-methoxy-1H-pyrazole-5-carboxamido)-5-methyl-N-(thietan-3-yl)pyrazolo[1,5-a]pyridine-7-carboxamide]
> 70%: all assays above

Cc1cc2ccnn2c(C(=O)NCC2CCOCC2)c1NC(=O)c1cc(Br)nn1-c1ncccc1Cl [Compound 195, 6-(3-bromo-1-(3-chloropyridin-2-yl)-1H-pyrazole-5-carboxamido)-5-methyl-N-((tetrahydro-2H-pyran-4-yl)methyl)pyrazolo[1,5-a]pyridine-7-carboxamide]
> 70%: all assays above

CCNC(=O)c1c(NC(=O)c2cc(OC)nn2-c2ncccc2Cl)c(C)cc2ccnn12 [Compound 31, 6-(1-(3-chloropyridin-2-yl)-3-methoxy-1H-pyrazole-5-carboxamido)-N-ethyl-5-methylpyrazolo[1,5-a]pyridine-7-carboxamide]
> 70%: all assays above

CCCNC(=O)c1c(NC(=O)c2cc(Br)nn2-c2ncccc2Cl)c(Cl)cc2ccnn12 [Compound 151, 6-(3-bromo-1-(3-chloropyridin-2-yl)-1H-pyrazole-5-carboxamido)-5-chloro-N-propylpyrazolo[1,5-a]pyridine-7-carboxamide]
> 70%: all assays above

C=CCNC(=O)c1c(NC(=O)c2cc(Br)nn2-c2ncccc2Cl)c(C)cc2ccnn12 [Compound 6, N-allyl-6-(3-bromo-1-(3-chloropyridin-2-yl)-1H-pyrazole-5-carboxamido)-5-methylpyrazolo[1,5-a]pyridine-7-carboxamide]
> 70%: all assays above

CONC(=O)c1c(NC(=O)c2cc(OCC(F)(F)F)nn2-c2ncccc2Cl)c(C)cc2ccnn12 [Compound 16, 6-(1-(3-chloropyridin-2-yl)-3-(2,2,2-trifluoroethoxy)-1H-pyrazole-5-carboxamido)-N-methoxy-5-methylpyrazolo[1,5-a]pyridine-7-carboxamide]
> 70%: all assays above

COc1cc(C(=O)Nc2c(C)cc3ccnn3c2C(=O)NC2COC2)n(-c2ncccc2Cl)n1 [Compound 46, 6-(1-(3-chloropyridin-2-yl)-3-methoxy-1H-pyrazole-5-carboxamido)-5-methyl-N-(oxetan-3-yl)pyrazolo[1,5-a]pyridine-7-carboxamide]
> 70%: all assays above

C#CCNC(=O)c1c(NC(=O)c2cc(Br)nn2-c2ncccc2Cl)c(C)cc2ccnn12 [Compound 36, 6-(3-bromo-1-(3-chloropyridin-2-yl)-1H-pyrazole-5-carboxamido)-5-methyl-N-(prop-2-yn-1-yl)pyrazolo[1,5-a]pyridine-7-carboxamide]
> 70%: all assays above

Cc1cc2ccnn2c(C(=O)NCC2CC2)c1NC(=O)c1cc(Br)nn1-c1ncccc1Cl [Compound 3, 6-(3-bromo-1-(3-chloropyridin-2-yl)-1H-pyrazole-5-carboxamido)-N-(cyclopropylmethyl)-5-methylpyrazolo[1,5-a]pyridine-7-carboxamide]
> 70%: all assays above

C#CCNC(=O)c1c(NC(=O)c2cc(Br)nn2-c2ncccc2Cl)c(Br)cc2ccnn12 [Compound 57, 5-bromo-6-(3-bromo-1-(3-chloropyridin-2-yl)-1H-pyrazole-5-carboxamido)-N-(prop-2-yn-1-yl)pyrazolo[1,5-a]pyridine-7-carboxamide]
> 70%: all assays above

COc1cc(C(=O)Nc2c(C)cc3ccnn3c2C(=O)NCCC#N)n(-c2ncccc2Cl)n1 [Compound 41, 6-(1-(3-chloropyridin-2-yl)-3-methoxy-1H-pyrazole-5-carboxamido)-N-(2-cyanoethyl)-5-methylpyrazolo[1,5-a]pyridine-7-carboxamide]
> 70%: all assays above

Cc1cc2ccnn2c(C(=O)NC(C)C(F)(F)F)c1NC(=O)c1cc(Br)nn1-c1ncccc1Cl (stereo not drawn) [Compound 187, 6-(3-bromo-1-(3-chloropyridin-2-yl)-1H-pyrazole-5-carboxamido)-5-methyl-N-(1,1,1-trifluoropropan-2-yl)pyrazolo[1,5-a]pyridine-7-carboxamide]
> 70%: all assays above

CSCCNC(=O)c1c(NC(=O)c2cc(Br)nn2-c2ncccc2Cl)c(Br)cc2ccnn12 [Compound 55, 5-bromo-6-(3-bromo-1-(3-chloropyridin-2-yl)-1H-pyrazole-5-carboxamido)-N-(2-(methylthio)ethyl)pyrazolo[1,5-a]pyridine-7-carboxamide]
> 70%: all assays above

COc1cc(C(=O)Nc2c(C)cc3ccnn3c2C(=O)NCC2CC2)n(-c2ncccc2Cl)n1 [Compound 27, 6-(1-(3-chloropyridin-2-yl)-3-methoxy-1H-pyrazole-5-carboxamido)-N-(cyclopropylmethyl)-5-methylpyrazolo[1,5-a]pyridine-7-carboxamide]
> 70%: all assays above

Cc1cc2ccnn2c(C(=O)NC2CC2)c1NC(=O)c1cc(OCC(F)(F)F)nn1-c1ncccc1Cl [Compound 13, 6-(1-(3-chloropyridin-2-yl)-3-(2,2,2-trifluoroethoxy)-1H-pyrazole-5-carboxamido)-N-cyclopropyl-5-methylpyrazolo[1,5-a]pyridine-7-carboxamide]
> 70%: all assays above

CONC(=O)c1c(NC(=O)c2cc(C(F)(F)F)nn2-c2ncccc2Cl)c(C)cc2ccnn12 [Compound 93, 6-(1-(3-chloropyridin-2-yl)-3-(trifluoromethyl)-1H-pyrazole-5-carboxamido)-N-methoxy-5-methylpyrazolo[1,5-a]pyridine-7-carboxamide]
> 70%: all assays above

Cc1cc2ccnn2c(C(=O)NC(C)(C)C)c1NC(=O)c1cc(C(F)(F)F)nn1-c1ncccc1Cl [Compound 58, N-(tert-butyl)-6-(1-(3-chloropyridin-2-yl)-3-(trifluoromethyl)-1H-pyrazole-5-carboxamido)-5-methylpyrazolo[1,5-a]pyridine-7-carboxamide]
> 70%: all assays above

CONC(=O)c1c(NC(=O)c2cc(OC)nn2-c2ncccc2Cl)c(C)cc2ccnn12 [Compound 42, 6-(1-(3-chloropyridin-2-yl)-3-methoxy-1H-pyrazole-5-carboxamido)-N-methoxy-5-methylpyrazolo[1,5-a]pyridine-7-carboxamide]
> 70%: all assays above

O=C(Nc1c(Br)cc2ccnn2c1C(=O)NC1CC1)c1cc(Br)nn1-c1ncccc1Cl [Compound 52, 5-bromo-6-(3-bromo-1-(3-chloropyridin-2-yl)-1H-pyrazole-5-carboxamido)-N-cyclopropylpyrazolo[1,5-a]pyridine-7-carboxamide]
> 70%: all assays above

CCNC(=O)c1c(NC(=O)c2cc(Br)nn2-c2ncccc2Cl)c(Br)cc2ccnn12 [Compound 76, 5-bromo-6-(3-bromo-1-(3-chloropyridin-2-yl)-1H-pyrazole-5-carboxamido)-N-ethylpyrazolo[1,5-a]pyridine-7-carboxamide]
> 70%: all assays above

Cc1cc2ccnn2c(C(=O)NCC2CC2)c1NC(=O)c1cc(OC2CSC2)nn1-c1ncccc1Cl [Compound 72, 6-(1-(3-chloropyridin-2-yl)-3-(thietan-3-yloxy)-1H-pyrazole-5-carboxamido)-N-(cyclopropylmethyl)-5-methylpyrazolo[1,5-a]pyridine-7-carboxamide]
> 70%: all assays above

COc1cc(C(=O)Nc2c(C)cc3ccnn3c2C(=O)NCC2CCOCC2)n(-c2ncccc2Cl)n1 [Compound 201, 6-(1-(3-chloropyridin-2-yl)-3-methoxy-1H-pyrazole-5-carboxamido)-5-methyl-N-((tetrahydro-2H-pyran-4-yl)methyl)pyrazolo[1,5-a]pyridine-7-carboxamide]
> 70%: all assays above
